# Experimental data taken from ChEMBL document CHEMBL3885881, “DrugMatrix”.
# Organism: Rattus norvegicus
# Experiment: DrugMatrix - Regimen: Daily Repeat
# Format: toxicity, organism-based, Sprague-Dawley
# Design: regimen Daily Repeat, gender Male, age 6-8 weeks
# Conditions: in vivo, po, route oral GAVAGE, vehicle .5 % CMC; for ABSOLUTE BASOPHIL / ABSOLUTE EOSINOPHIL / ABSOLUTE LYMPHOCYTE / ABSOLUTE MONOCYTE / ABSOLUTE SEGMENTED NEUTROPHIL / BASOPHIL / EOSINOPHIL / ERYTHROCYTE COUNT / HEMATOCRIT / HEMOGLOBIN / LEUKOCYTE COUNT / LYMPHOCYTE / MEAN CORPUSCULAR HEMOGLOBIN / MEAN CORPUSCULAR HEMOGLOBIN CONCENTRATION / MEAN CORPUSCULAR VOLUME / MONOCYTE / NEUTROPHIL / NUCLEATED RED BLOOD CELLS / PLATELET COUNT: tissue Blood; for ALANINE AMINOTRANSFERASE / ALBUMIN / ALKALINE PHOSPHATASE / ASPARTATE AMINOTRANSFERASE / BLOOD UREA NITROGEN / CARBON DIOXIDE / CHLORIDE / CHOLESTEROL / CREATINE PHOSPHOKINASE / CREATININE / GLUCOSE / LACTATE DEHYDROGENASE / LIPASE / PHOSPHORUS / POTASSIUM / SODIUM / TOTAL BILIRUBIN / TOTAL PROTEIN / URIC ACID: tissue Plasma
# [1] = 10 mg/kg, 72 h, dose level Low, time 3 day
# [2] = 10 mg/kg, 120 h, dose level Low, time 5 day
# [3] = 310 mg/kg, 72 h, dose level High, time 3 day
# [4] = 310 mg/kg, 120 h, dose level High, time 5 day
structure (smiles),measurement,setting,value
O=C1CN=C(c2ccccc2)c2cc([N+](=O)[O-])ccc2N1 [NITRAZEPAM],ABSOLUTE BASOPHIL,[1],0 CELLS/uL
same,ABSOLUTE EOSINOPHIL,[1],19 CELLS/uL
same,ABSOLUTE LYMPHOCYTE,[1],6878.67 CELLS/uL
same,ABSOLUTE MONOCYTE,[1],19 CELLS/uL
same,ABSOLUTE SEGMENTED NEUTROPHIL,[1],750 CELLS/uL
same,BASOPHIL,[1],0%
same,EOSINOPHIL,[1],0.33%
same,ERYTHROCYTE COUNT,[1],5.13 x10E6/uL
same,HEMATOCRIT,[1],31.73%
same,HEMOGLOBIN,[1],12.93 G/DL
same,LEUKOCYTE COUNT,[1],7.67 x10E3/uL
same,LYMPHOCYTE,[1],90.33%
same,MEAN CORPUSCULAR HEMOGLOBIN,[1],25.23 pg
same,MEAN CORPUSCULAR HEMOGLOBIN CONCENTRATION,[1],40.73 G/DL
same,MEAN CORPUSCULAR VOLUME,[1],61.9 fL
same,MONOCYTE,[1],0.33%
same,NEUTROPHIL,[1],9%
same,NUCLEATED RED BLOOD CELLS,[1],0 /100WBC
same,PLATELET COUNT,[1],847 x10E3/uL
same,ALANINE AMINOTRANSFERASE,[1],48.67 u/L
same,ALBUMIN,[1],4.23 G/DL
same,ALKALINE PHOSPHATASE,[1],424.33 u/L
same,ASPARTATE AMINOTRANSFERASE,[1],76.67 u/L
same,BLOOD UREA NITROGEN,[1],15 mg/dL
same,CARBON DIOXIDE,[1],31 mmol/L
same,CHLORIDE,[1],103 MEQ/L
same,CHOLESTEROL,[1],76.67 mg/dL
same,CREATINE PHOSPHOKINASE,[1],169 u/L
same,CREATININE,[1],0.18 mg/dL
same,GLUCOSE,[1],141.67 mg/dL
same,LACTATE DEHYDROGENASE,[1],124.67 u/L
same,LIPASE,[1],10 u/L
same,PHOSPHORUS,[1],10.73 mg/dL
same,POTASSIUM,[1],5.83 MEQ/L
same,SODIUM,[1],149.6 MEQ/L
same,TOTAL BILIRUBIN,[1],0.2 mg/dL
same,TOTAL PROTEIN,[1],5.43 G/DL
same,URIC ACID,[1],0.9 mg/dL
same,ABSOLUTE BASOPHIL,[2],0 CELLS/uL
same,ABSOLUTE EOSINOPHIL,[2],0 CELLS/uL
same,ABSOLUTE LYMPHOCYTE,[2],11358.67 CELLS/uL
same,ABSOLUTE MONOCYTE,[2],0 CELLS/uL
same,ABSOLUTE SEGMENTED NEUTROPHIL,[2],1008 CELLS/uL
same,BASOPHIL,[2],0%
same,EOSINOPHIL,[2],0%
same,ERYTHROCYTE COUNT,[2],5.81 x10E6/uL
same,HEMATOCRIT,[2],35.47%
same,HEMOGLOBIN,[2],13.93 G/DL
same,LEUKOCYTE COUNT,[2],12.37 x10E3/uL
same,LYMPHOCYTE,[2],92%
same,MEAN CORPUSCULAR HEMOGLOBIN,[2],24.07 pg
same,MEAN CORPUSCULAR HEMOGLOBIN CONCENTRATION,[2],39.33 G/DL
same,MEAN CORPUSCULAR VOLUME,[2],61.13 fL
same,MONOCYTE,[2],0%
same,NEUTROPHIL,[2],8%
same,NUCLEATED RED BLOOD CELLS,[2],0 /100WBC
same,PLATELET COUNT,[2],1206.67 x10E3/uL
same,ALANINE AMINOTRANSFERASE,[2],43.67 u/L
same,ALBUMIN,[2],4.43 G/DL
same,ALKALINE PHOSPHATASE,[2],331.67 u/L
same,ASPARTATE AMINOTRANSFERASE,[2],77.33 u/L
same,BLOOD UREA NITROGEN,[2],18 mg/dL
same,CARBON DIOXIDE,[2],26.67 mmol/L
same,CHLORIDE,[2],102 MEQ/L
same,CHOLESTEROL,[2],67.67 mg/dL
same,CREATINE PHOSPHOKINASE,[2],186.67 u/L
same,CREATININE,[2],0.2 mg/dL
same,GLUCOSE,[2],147.33 mg/dL
same,LACTATE DEHYDROGENASE,[2],109.33 u/L
same,LIPASE,[2],9.33 u/L
same,PHOSPHORUS,[2],13.13 mg/dL
same,POTASSIUM,[2],6.92 MEQ/L
same,SODIUM,[2],147.33 MEQ/L
same,TOTAL BILIRUBIN,[2],0.23 mg/dL
same,TOTAL PROTEIN,[2],6.4 G/DL
same,URIC ACID,[2],2.13 mg/dL
same,ABSOLUTE BASOPHIL,[3],0 CELLS/uL
same,ABSOLUTE EOSINOPHIL,[3],0 CELLS/uL
same,ABSOLUTE LYMPHOCYTE,[3],11568.33 CELLS/uL
same,ABSOLUTE MONOCYTE,[3],226.67 CELLS/uL
same,ABSOLUTE SEGMENTED NEUTROPHIL,[3],871.67 CELLS/uL
same,BASOPHIL,[3],0%
same,EOSINOPHIL,[3],0%
same,ERYTHROCYTE COUNT,[3],5.41 x10E6/uL
same,HEMATOCRIT,[3],34%
same,HEMOGLOBIN,[3],13.63 G/DL
same,LEUKOCYTE COUNT,[3],12.67 x10E3/uL
same,LYMPHOCYTE,[3],90.67%
same,MEAN CORPUSCULAR HEMOGLOBIN,[3],25.23 pg
same,MEAN CORPUSCULAR HEMOGLOBIN CONCENTRATION,[3],40.1 G/DL
same,MEAN CORPUSCULAR VOLUME,[3],62.87 fL
same,MONOCYTE,[3],1.67%
same,NEUTROPHIL,[3],7.67%
same,NUCLEATED RED BLOOD CELLS,[3],0 /100WBC
same,PLATELET COUNT,[3],1116 x10E3/uL
same,ALANINE AMINOTRANSFERASE,[3],48 u/L
same,ALBUMIN,[3],4.03 G/DL
same,ALKALINE PHOSPHATASE,[3],270 u/L
same,ASPARTATE AMINOTRANSFERASE,[3],93.33 u/L
same,BLOOD UREA NITROGEN,[3],15.67 mg/dL
same,CARBON DIOXIDE,[3],27.67 mmol/L
same,CHLORIDE,[3],100 MEQ/L
same,CHOLESTEROL,[3],88.67 mg/dL
same,CREATINE PHOSPHOKINASE,[3],222.67 u/L
same,CREATININE,[3],0.17 mg/dL
same,GLUCOSE,[3],150.33 mg/dL
same,LACTATE DEHYDROGENASE,[3],150.67 u/L
same,LIPASE,[3],8 u/L
same,PHOSPHORUS,[3],11.93 mg/dL
same,POTASSIUM,[3],6.17 MEQ/L
same,SODIUM,[3],143.67 MEQ/L
same,TOTAL BILIRUBIN,[3],0.2 mg/dL
same,TOTAL PROTEIN,[3],5.7 G/DL
same,URIC ACID,[3],1.3 mg/dL
same,ABSOLUTE BASOPHIL,[4],0 CELLS/uL
same,ABSOLUTE EOSINOPHIL,[4],37.33 CELLS/uL
same,ABSOLUTE LYMPHOCYTE,[4],8871.33 CELLS/uL
same,ABSOLUTE MONOCYTE,[4],96.67 CELLS/uL
same,ABSOLUTE SEGMENTED NEUTROPHIL,[4],1228 CELLS/uL
same,BASOPHIL,[4],0%
same,EOSINOPHIL,[4],0.33%
same,ERYTHROCYTE COUNT,[4],6.24 x10E6/uL
same,HEMATOCRIT,[4],37.73%
same,HEMOGLOBIN,[4],14.83 G/DL
same,LEUKOCYTE COUNT,[4],10.23 x10E3/uL
same,LYMPHOCYTE,[4],86.67%
same,MEAN CORPUSCULAR HEMOGLOBIN,[4],23.77 pg
same,MEAN CORPUSCULAR HEMOGLOBIN CONCENTRATION,[4],39.33 G/DL
same,MEAN CORPUSCULAR VOLUME,[4],60.47 fL
same,MONOCYTE,[4],1%
same,NEUTROPHIL,[4],12%
same,NUCLEATED RED BLOOD CELLS,[4],0 /100WBC
same,PLATELET COUNT,[4],1180.33 x10E3/uL
same,ALANINE AMINOTRANSFERASE,[4],39.67 u/L
same,ALBUMIN,[4],4.13 G/DL
same,ALKALINE PHOSPHATASE,[4],195.33 u/L
same,ASPARTATE AMINOTRANSFERASE,[4],76.33 u/L
same,BLOOD UREA NITROGEN,[4],17.33 mg/dL
same,CARBON DIOXIDE,[4],26.33 mmol/L
same,CHLORIDE,[4],104 MEQ/L
same,CHOLESTEROL,[4],87.67 mg/dL
same,CREATINE PHOSPHOKINASE,[4],160 u/L
same,CREATININE,[4],0.19 mg/dL
same,GLUCOSE,[4],148.67 mg/dL
same,LACTATE DEHYDROGENASE,[4],101 u/L
same,LIPASE,[4],40.67 u/L
same,PHOSPHORUS,[4],9.83 mg/dL
same,POTASSIUM,[4],6.59 MEQ/L
same,SODIUM,[4],145.77 MEQ/L
same,TOTAL BILIRUBIN,[4],0.13 mg/dL
same,TOTAL PROTEIN,[4],6 G/DL
same,URIC ACID,[4],1.17 mg/dL
